Data set [1] can be described thus: Cytotoxicity against human MT4 cells assessed as cell viability after 96 hrs by MTT assay. It is filed as cell-based. (Tetrazolium dyes change colour on reduction, which living cells bring about.)
The subject of data set [2] is Human immunodeficiency virus 1. Briefly: Antiviral activity against HIV-1 infected in MT4 cells assessed as inhibition of virus-induced cytopathogenicity after 4 days by MTT assay. The conditions noted are these: Human immunodeficiency virus 1, MT4, 96 h. The data set is classed as functional, organism-based. In general terms: Protection from cytopathic effect is a common read-out in antiviral testing.

Another data set deals with Coxsackievirus B5. Briefly: Antiviral activity against human CVB5 infected in african green monkey Vero76 cells assessed as inhibition of virus-induced cytopathogenicity after 3 days by plaque reduction assay. As to conditions: Enterovirus B, Vero 76, 72 h. It is filed as functional, organism-based.
For data set [3], the system named is Vesicular stomatitis virus. The experiment in a line: Antiviral activity against VSV. The data set is classed as functional, organism-based.
Data set [4] can be described thus: Cytotoxicity against BHK cells assessed as cell viability after 48 to 96 hrs by MTT assay. The conditions noted are these: hamster. It is filed as cell-based, Mesocricetus auratus.
Data set [5] can be described thus: Cytotoxicity against MDBK cells assessed as cell viability after 48 to 96 hrs by MTT assay. It is filed as cell-based, Bos taurus. As to conditions: cattle.
A short description of data set [6]: Cytotoxicity against african green monkey Vero 76 cells assessed as cell viability after 48 to 96 hrs by crystal violet staining method. It is filed as cell-based. The conditions noted are these: chlorocebus sabaeus.
Data set [7] deals with Bovine viral diarrhea virus 1. The experiment in a line: Antiviral activity against BVDV infected in MDBK cells assessed as inhibition of virus-induced cytopathogenicity after 3 to 4 days by MTT assay. The data set is classed as functional, organism-based. As to conditions: Bovine viral diarrhea virus isolates and strains.
In another data set the test system is Human orthopneumovirus. Briefly: Antiviral activity against human RSV infected in african green monkey Vero76 cells assessed as inhibition of virus-induced cytopathogenicity after 5 days by plaque reduction assay. The data set is classed as functional, organism-based. As to conditions: human respiratory syncytial virus, Vero 76, 120 h.
The next data set concerns Vaccinia virus. The experiment in a line: Antiviral activity against Vaccinia virus. It is filed as functional, organism-based. The conditions noted are these: Orthopoxvirus vaccinia.
The test system of another data set is Yellow fever virus. Briefly: Antiviral activity against YFV infected in BHK-21 cells assessed as inhibition of virus-induced cytopathogenicity after 3 to 4 days by MTT assay. It is filed as functional, organism-based.

SMILES strings stand for the structures.

The source of these data is ChEMBL document CHEMBL3734667 (Bioorg Med Chem, 2015).

In general, CC50 refers to the concentration at which the toxic effect on the cells reaches its halfway point. In general, EC50 refers to the concentration giving half of the maximal effect. As to `Clc1c(Cl)c(Cl)c2c(nnn2C2CCCO2)c1Cl` (stereo not drawn), the half-maximal cytotoxic concentration (CC50) at 96 h in data set [1] came to 95 µM. In addition, in [2], the EC50 is over 100 µM.

With `CN1CCN(CCn2nnc3ccccc32)CC1`, the concentration giving a half-maximal response (EC50) (with Coxsackievirus B5; in [3]; in data set [2]; in data set [7]; with Human orthopneumovirus; in the data set with Vaccinia virus) was over 100 µM in each case. Also, the concentration giving a half-maximal response (EC50) in the data set with Yellow fever virus was over 100 µM. In addition, the cytotoxic concentration (CC50) in data set [4], in [5] and in [6] was over 100 µM in each case. Besides, in data set [1], the half-maximal cytotoxic concentration (CC50) at 96 h was over 100 µM.

As for `O=C(Cn1nc2ccccc2n1)N1CCOCC1`, the concentration giving a half-maximal response (EC50) (in the data set with Coxsackievirus B5; in data set [3]; in data set [2]; in data set [7]; in the data set on Human orthopneumovirus; in the data set with Vaccinia virus) was over 100 µM each time. The 50% effective concentration (EC50) in the data set on Yellow fever virus is over 100 µM. Besides, the cytotoxic concentration (CC50) in [4], in data set [5] and in data set [6] was over 100 µM throughout. The half-maximal cytotoxic concentration (CC50) at 96 h in [1] is over 100 µM.

Take `Clc1cc2nn(C3CCCO3)nc2cc1Cl` (stereo not drawn): the CC50 in [4] and in data set [5] was over 100 µM each time. The 50% cytotoxic concentration (CC50) at 96 h in data set [1] was over 100 µM. In addition, the 50% effective concentration (EC50) (in data set [2]; in data set [7]; in the data set on Yellow fever virus) was over 100 µM in each case.

`COc1cc(/C=C/C(=O)OCCn2nnc3ccccc32)cc(OC)c1OC`: the EC50 (with Coxsackievirus B5; in [3]; in data set [2]; in data set [7]; in the data set on Human orthopneumovirus; in the data set on Vaccinia virus) was over 100 µM throughout. Besides, in the data set with Yellow fever virus, the EC50 was over 100 µM. Further, the cytotoxic concentration (CC50) is over 100 µM in data set [4], 70 µM in data set [5] and over 100 µM in data set [6]. The CC50 at 96 h in data set [1] amounted to 45 µM.

Turning to `COc1cc(C(=O)OCCCn2nnc3ccccc32)cc(OC)c1OC`, the EC50 (in the data set on Coxsackievirus B5; in [3]; in data set [2]; in data set [7]; in the data set with Human orthopneumovirus; in the data set on Vaccinia virus) was over 100 µM throughout. For the same compound, the EC50 in the data set on Yellow fever virus is over 100 µM. Moreover, the CC50 in [4] is over 100 µM; in [5], at least 100 µM; in data set [6], 100 µM. Further, in [1], the CC50 at 96 h was over 100 µM.

Regarding `CC(CC(=O)O)n1nnc2ccc([N+](=O)[O-])cc21` (stereo not drawn), the EC50 (in the data set with Coxsackievirus B5; in data set [3]; in [2]; in data set [7]; in the data set on Human orthopneumovirus; in the data set with Vaccinia virus) was over 100 µM in each case. In addition, the half-maximal effective concentration (EC50) in the data set on Yellow fever virus is over 100 µM. Moreover, the cytotoxic concentration (CC50) in [4], in data set [5] and in data set [6] was over 100 µM in each case. Besides, the CC50 at 96 h in data set [1] is over 100 µM.

Turning to `NCCn1nnc2ccccc21`, the half-maximal effective concentration (EC50) (with Coxsackievirus B5; in data set [3]; in data set [2]; in [7]; with Human orthopneumovirus; with Vaccinia virus) was over 100 µM in each case. In addition, the EC50 in the data set on Yellow fever virus was over 100 µM. Further, the CC50 in [4], in [5] and in data set [6] was over 100 µM throughout. Also, the 50% cytotoxic concentration (CC50) at 96 h in data set [1] was over 100 µM.

On to `CN(C)C(=O)Cn1nnc2ccccc21`, for which the EC50 (in the data set with Coxsackievirus B5; in [3]; in data set [2]; in [7]; in the data set on Human orthopneumovirus; in the data set with Vaccinia virus) was over 100 µM in each case. Also, in the data set with Yellow fever virus, the half-maximal effective concentration (EC50) was over 100 µM. Moreover, the CC50 in data set [4], in [5] and in data set [6] was over 100 µM in each case. The CC50 at 96 h in [1] is over 100 µM.

Regarding `COc1cc(/C=C/C(=O)OCCCn2nnc3ccccc32)cc(OC)c1OC`, the 50% effective concentration (EC50) (in the data set with Coxsackievirus B5; in data set [3]; in [2]; in data set [7]; with Human orthopneumovirus; in the data set on Vaccinia virus) was over 100 µM each time. Moreover, in the data set with Yellow fever virus, the EC50 was over 100 µM. Moreover, the CC50 was over 100 µM in [4], 83 µM in data set [5] and over 100 µM in data set [6]. Besides, in [1], the CC50 at 96 h is over 100 µM.

As to `O=C(Cn1nnc2ccccc21)N1CCOCC1`, the concentration for a half-maximal effect (EC50) (in the data set with Coxsackievirus B5; in data set [3]; in [2]; in data set [7]; with Human orthopneumovirus; in the data set on Vaccinia virus) was over 100 µM in each case. Further, the EC50 in the data set on Yellow fever virus is over 100 µM. Moreover, the CC50 in data set [4], in data set [5] and in [6] was over 100 µM in each case. In addition, the 50% cytotoxic concentration (CC50) at 96 h in [1] is over 100 µM.

Take `CN(C)c1cccc(C(=O)OCCn2nnc3ccccc32)c1`: the EC50 (with Coxsackievirus B5; in [3]; in data set [2]; in data set [7]; with Human orthopneumovirus; in the data set with Vaccinia virus) was over 100 µM throughout. In addition, the EC50 with Yellow fever virus was over 100 µM. Further, the values for the CC50 in data set [4], in [5] and in data set [6] were over 100 µM, at least 100 µM and at least 100 µM, respectively. For the same compound, in data set [1], the CC50 at 96 h amounted to 65 µM.

For `COc1cc(C(=O)OCCCn2nc3ccccc3n2)cc(OC)c1OC`, the half-maximal effective concentration (EC50) (in the data set with Coxsackievirus B5; in data set [3]; in data set [2]; in data set [7]; in the data set with Human orthopneumovirus; in the data set with Vaccinia virus) was over 100 µM in each case. The EC50 in the data set on Yellow fever virus was over 100 µM. In addition, the CC50 in data set [4], in data set [5] and in data set [6] was over 100 µM each time. In [1], the cytotoxic concentration (CC50) at 96 h was over 100 µM.

`CN(C)C(=O)Cn1nc2ccccc2n1`: the EC50 (with Coxsackievirus B5; in data set [3]; in [2]; in [7]; with Human orthopneumovirus; in the data set on Vaccinia virus) was over 100 µM throughout. Moreover, in the data set on Yellow fever virus, the EC50 is over 100 µM. For the same compound, the CC50 in data set [4], in [5] and in [6] was over 100 µM each time. Besides, the CC50 at 96 h in data set [1] is over 100 µM.

`COc1cc(C(=O)OCCn2nnc3ccccc32)cc(OC)c1OC`: the EC50 (in the data set with Coxsackievirus B5; in data set [3]; in data set [2]; in data set [7]; with Human orthopneumovirus; in the data set on Vaccinia virus) was over 100 µM throughout. Besides, the EC50 with Yellow fever virus was over 100 µM. Moreover, the CC50 stood at 70 µM in data set [4], 40 µM in data set [5] and 80 µM in data set [6]. Further, in data set [1], the 50% cytotoxic concentration (CC50) at 96 h was found to be 1.9 µM.

`CC(CC(=O)O)n1nc2ccc([N+](=O)[O-])cc2n1` (stereo not drawn): the half-maximal effective concentration (EC50) (in the data set on Coxsackievirus B5; in data set [3]; in data set [2]; in data set [7]; with Human orthopneumovirus; in the data set on Vaccinia virus) was over 100 µM each time. Besides, in the data set on Yellow fever virus, the EC50 is over 100 µM. Also, the cytotoxic concentration (CC50) in data set [4], in [5] and in data set [6] was over 100 µM throughout. Also, in data set [1], the 50% cytotoxic concentration (CC50) at 96 h is over 100 µM.

Regarding `NNC(=O)Cn1nnc2ccccc21`, the EC50 (in the data set on Coxsackievirus B5; in data set [3]; in data set [2]; in [7]; with Human orthopneumovirus; in the data set with Vaccinia virus) was over 100 µM throughout. The 50% effective concentration (EC50) in the data set on Yellow fever virus was over 100 µM. In addition, the CC50 in data set [4], in data set [5] and in [6] was over 100 µM throughout. Also, in data set [1], the half-maximal cytotoxic concentration (CC50) at 96 h was over 100 µM.

Consider `Cc1cc2nnn(C3CCCO3)c2cc1C` (stereo not drawn), for which the half-maximal cytotoxic concentration (CC50) in data set [4] and in [5] was over 100 µM in each case. In addition, in data set [1], the cytotoxic concentration (CC50) at 96 h is over 100 µM. Besides, the concentration giving a half-maximal response (EC50) (in [2]; in [7]; in the data set on Yellow fever virus) was over 100 µM in each case.

With `CC(CC(=O)O)n1nc2ccc3ccccc3c2n1` (stereo not drawn), the half-maximal effective concentration (EC50) (with Coxsackievirus B5; in data set [3]; in data set [2]; in data set [7]; with Human orthopneumovirus; with Vaccinia virus) was over 100 µM throughout. Besides, the EC50 with Yellow fever virus is over 100 µM. The half-maximal cytotoxic concentration (CC50) in data set [4], in data set [5] and in data set [6] was over 100 µM in each case. In addition, in data set [1], the CC50 at 96 h is over 100 µM.

With `COc1cc(/C=C/C(=O)OCCn2nc3ccccc3n2)cc(OC)c1OC`, the half-maximal effective concentration (EC50) (in the data set with Coxsackievirus B5; in [3]; in data set [2]; in data set [7]; with Human orthopneumovirus; in the data set with Vaccinia virus) was over 100 µM each time. Moreover, in the data set on Yellow fever virus, the EC50 is over 100 µM. For the same compound, the CC50 in data set [4], in data set [5] and in data set [6] was over 100 µM in each case. Also, in [1], the 50% cytotoxic concentration (CC50) at 96 h is at least 100 µM.

Turning to `Clc1cc2nnn(C3CCCO3)c2cc1Cl` (stereo not drawn), the 50% cytotoxic concentration (CC50) in data set [4] and in data set [5] was over 100 µM each time. Besides, the 50% cytotoxic concentration (CC50) at 96 h in data set [1] was over 100 µM. The EC50 (in [2]; in [7]; in the data set on Yellow fever virus) was over 100 µM throughout.

As to `COc1cc(C(=O)OCCn2nc3ccccc3n2)cc(OC)c1OC`, the EC50 (in the data set on Coxsackievirus B5; in [3]; in data set [2]; in data set [7]; in the data set on Human orthopneumovirus; in the data set on Vaccinia virus) was over 100 µM in each case. Also, the EC50 in the data set with Yellow fever virus was over 100 µM. Besides, the half-maximal cytotoxic concentration (CC50) in data set [4] was 26 µM; in data set [5] it was 6 µM; in [6], 1.6 µM. Further, in data set [1], the cytotoxic concentration (CC50) at 96 h came to 0.3 µM.
